Assay results as given in article PMC3208381 (European journal of medicinal chemistry, 2011).

Target: HCV NS5B polymerase (NS5BCΔ21) (Hepatitis C virus genotype 1b, UniProt P26663)
Experiment: NS5B inhibition assay
Format: biochemical
Conditions: for fold decrease in activity relative to thiophene parent compound 5a: NS5B IC50 compared with compound 5a; for fold enhancement of inhibitory activity relative to 5-methyl analog 6a: NS5B IC50 compared with compound 6a; for fold more active than 15a: NS5B IC50 compared with compound 15a

## O=C(O)/C(O)=C/C(=O)c1cc2cc(Br)ccc2o1 [Compound 3a, 4-(5-Bromobenzofuran-2-yl)-2-hydroxy-4-oxobut-2-enoic acid]
NS5B IC50 compared with compound 2a
  fold improvement in inhibitory activity over compound 2a: ~ 3.5 fold

## O=C(O)/C(O)=C/C(=O)c1cccs1 [Compound 5a, 2-Hydroxy-4-(thiophen-2-yl)-4-oxobut-2-enoic acid]
NS5B IC50 compared with compound 4a
  fold increase in inhibitory activity over compound 4a: ~ 2.2 fold

## Cc1ccc(C(=O)/C=C(\O)C(=O)O)s1 [Compound 6a, 2-Hydroxy-4-(5-methylthiophen-2-yl)-4-oxobut-2-enoic acid]
  fold decrease in activity relative to thiophene parent compound 5a: approximately 3 fold

## O=C(O)/C(O)=C/C(=O)c1ccc(Cl)s1 [Compound 7a, 2-Hydroxy-4-(5-chlorothiophene-2-yl)-4-oxobut-2-enoic acid]
  fold enhancement of inhibitory activity relative to 5-methyl analog 6a: ~ 2 fold

## O=C(O)/C(O)=C/C(=O)c1ccc(Br)s1 [Compound 8a, 4-(5-Bromothiophen-2-yl)-2-hydroxy-4-oxobut-2-enoic acid]
  fold enhancement of inhibitory activity relative to 5-methyl analog 6a: ~ 2 fold

## Cc1csc(C(=O)/C=C(\O)C(=O)O)c1 [Compound 10a, 2-Hydroxy-4-(4-methylthiophen-2-yl)-4-oxobut-2-enoic acid]
  fold enhancement of inhibitory activity relative to 5-methyl analog 6a: ~ 2 fold

## Cc1ccsc1C(=O)/C=C(\O)C(=O)O [Compound 11a, 2-Hydroxy-4-(3-methylthiophen-2-yl)-4-oxobut-2-enoic acid]
  fold enhancement of inhibitory activity relative to 5-methyl analog 6a: ~ 7 fold

## O=C(O)/C(O)=C/C(=O)c1nccs1 [Compound 12a, 2-Hydroxy-4-(4-thiazole-2-yl)-4-oxobut-2-enoic acid]
  fold decrease in activity relative to thiophene parent compound 5a: ~ 1.8 fold

## O=C(O)/C(O)=C/C(=O)c1ccccc1[N+](=O)[O-] [Compound 16a, 2-Hydroxy-4-(2-nitrophenyl)-4-oxobut-2-enoic acid]
  fold more active than 15a: ~ 2 fold

## O=C(O)/C(O)=C/C(=O)c1ccccc1F [Compound 17a, 4-(2-Fluorophenyl)-2-hydroxy-4-oxobut-2-enoic acid]
  fold more active than 15a: ~ 2 fold
